{
  "source": "paper PMC4723341",
  "about": "“Ribonuclease H/DNA Polymerase HIV-1 Reverse Transcriptase Dual Inhibitor: Mechanistic Studies on the Allosteric Mode of Action of Isatin-Based Compound RMNC6” (PLoS ONE, 2016)",
  "key": {"[1]": {"molecular_target": "T1, HIV-1 RT-associated RDDP activity, M230A RT (Human immunodeficiency virus type 1 group M subtype B, UniProt P04585, M817A)", "T1 construct": "The 1:1 ration between the p66/p51 subunits was also verified; made in house; host or cells: E. coli M15", "assay": "biochemical", "design": "species or system HIV-1 group M subtype B"}, "[2]": {"system": "HIV-1 RT-associated RDDP activity, M230A RT", "assay": "biochemical", "design": "species or system HIV-1 group M subtype B", "settings": "M230A RT"}, "[3]": {"molecular_target": "T2, HIV-1 RT-associated RDDP activity, K103N RT (Human immunodeficiency virus type 1 group M subtype B, UniProt P04585, K690N)", "T2 construct": "The 1:1 ration between the p66/p51 subunits was also verified; made in house; host or cells: E. coli M15", "assay": "RDDP activity assay, K103N RT", "format": "biochemical, HIV-1 group M subtype B"}, "[4]": {"molecular_target": "T3, HIV-1 RT-associated RDDP activity, E224A RT (Human immunodeficiency virus type 1 group M subtype B, UniProt P04585, E811A)", "T3 construct": "The 1:1 ration between the p66/p51 subunits was also verified; made in house; host or cells: E. coli M15", "assay": "biochemical", "design": "species or system HIV-1 group M subtype B"}, "[5]": {"molecular_target": "T4, HIV-1 RT-associated RDDP activity, wt RT (Human immunodeficiency virus type 1 group M subtype B, UniProt P04585)", "T4 construct": "The 1:1 ration between the p66/p51 subunits was also verified; made in house; host or cells: E. coli M15", "assay": "biochemical", "design": "species or system HIV-1 group M subtype B"}, "[6]": {"molecular_target": "T5, HIV-1 RT RNA-dependent DNA polymerase activity (Human immunodeficiency virus type 1 group M subtype B, UniProt P04585)", "T5 construct": "The 1:1 ration between the p66/p51 subunits was also verified; made in house; host or cells: E. coli M15", "assay": "Yonetani-Theorell analysis of RMNC6 and EFV on RDDP function", "format": "biochemical", "experimental": "(§1) RNA-dependent DNA polymerase (RDDP) activity was measured as described in 25 μL volume containing 60 mM Tris-HCl buffer pH 8.1, 8 mM MgCl2, 60 mM KCl, 13 mM DTT, 2.5 μM poly(A)-oligo(dT), 100 μM dTTP, increasing concentrations of inhibitors, whose dilution were made in water, and different amounts of enzymes according to a linear range of dose-response curve: 6 ng wt RT; 30 ng K103N RT; 12 ng V106ART; 19 ng V108A RT; 1.51.5 ng Y181C RT; 45 ng Y188A RT; 15 ng Y188L RT; 30 ng E224A RT; 15 ng P225A RT; 18 ng P226A RT; 23 ng F227A RT; 15 ng L228A RT; 30 ng W229A RT; 30 ng M230A RT; 15 ng G231A RT; 15 ng N474A RT; 15 ng Y501A RT; 15 ng A502F RT; 19 ng A508V RT; 38 ng HIV-1 group O RT. After enzyme addition, the reaction mixture was incubated for 30 min at 37°C and the stopped by addition of EDTA. Reaction products were detected by picogreen addition and measured with a multilabel counter plate reader Victor 3 (Perkin Elmer model 1420–051) equipped with filters for 502/523 nm (excitation/emission wavelength). The Yonetani-Theorell analysis was performed as described previously."}, "[7]": {"system": "HIV-1 RT-associated RDDP activity, F227A RT", "assay": "biochemical", "design": "species or system HIV-1 group M subtype B", "settings": "F227A RT"}, "[8]": {"molecular_target": "T6, HIV-1 RT-associated RDDP activity, F227A RT (Human immunodeficiency virus type 1 group M subtype B, UniProt P04585, F814A)", "T6 construct": "The 1:1 ration between the p66/p51 subunits was also verified; made in house; host or cells: E. coli M15", "assay": "biochemical", "design": "species or system HIV-1 group M subtype B"}, "[9]": {"molecular_target": "HIV-1 RT-associated RDDP activity, HIV-1 group O RT (Human immunodeficiency virus type 1 group O, UniProt Q79666)", "assay": "RDDP activity assay, HIV-1 group O RT", "format": "biochemical", "settings": "read-out: IC50 RDDP", "source_text": "Recombinant HIV-1 group O RT was expressed and purified as previously described. It was obtained as a heterodimer composed of subunits of 66 and 51 kDa, with a polyhistidine tag at the C-terminus of p66. For this purpose, the RT p66 subunit encoded within a p66RTB expression vector was co-expressed with the HIV-1 protease in E. coli XL-1 Blue, and the obtained heterodimers were then purified by ionic exchange followed by chromatography on Ni2+-nitriloacetic acid agarose. The enzyme was quantified by active site titration before biochemical studies.\nas §1, with “Reaction products were detected by picogreen addition and measured with a multilabel counter plate reader Victor 3 (Perkin Elmer model 1420–051) equipped with filters for 502/523 nm (excitation/emission wavelength). The Yonetani-Theorell analysis was performed as described previously.” left out"}, "[10]": {"molecular_target": "T7, HIV-1 RT-associated RDDP activity, A502F RT (Human immunodeficiency virus type 1 group M subtype B, UniProt P04585, A1089F)", "T7 construct": "The 1:1 ration between the p66/p51 subunits was also verified; made in house; host or cells: E. coli M15", "assay": "biochemical", "design": "species or system HIV-1 group M subtype B"}, "[11]": {"molecular_target": "T8, HIV-1 RT-associated RDDP activity, A508V RT (Human immunodeficiency virus type 1 group M subtype B, UniProt P04585, A1095V)", "T8 construct": "The 1:1 ration between the p66/p51 subunits was also verified; made in house; host or cells: E. coli M15", "assay": "biochemical", "design": "species or system HIV-1 group M subtype B"}},
  "data": [
    {"smiles": "N#Cc1ccc(-c2csc(NN=C3C(=O)Nc4ccccc43)n2)cc1", "note": "[RMNC6, (Z)-4-(2-(2-(2-oxoindolin-3-ylidene)hydrazinyl)thiazol-4-yl)benzonitrile]", "values": [
      {"measurement": "IC50", "setting": "[1]", "result": "15 ± 3.5", "unit": "µM"},
      {"measurement": "Fold of increase of RDDP IC50 with respect to wt RT", "setting": "[2]", "result": 1.5},
      {"measurement": "IC50", "setting": "[3]", "result": "13.6 ± 1", "unit": "µM"},
      {"measurement": "IC50", "setting": "[4]", "result": "13.8 ± 4.2", "unit": "µM"},
      {"measurement": "Fold of increase of RDDP IC50 with respect to wt RT", "setting": "[4]; E224A RT", "result": 1.4},
      {"measurement": "IC50", "setting": "[5]", "result": "9.8 ± 1.4", "unit": "µM"},
      {"measurement": "Mutual exclusivity of inhibition (Yonetani-Theorell, words)", "setting": "[6]; RMNC6 combined with EFV (4, 8, 16 nM) on RDDP function", "result": "not mutually exclusive"},
      {"measurement": "Interaction constant α (Yonetani-Theorell)", "setting": "[6]; combined effects of RMNC6 and EFV on RDDP function", "result": 1.2},
      {"measurement": "Fold of increase of RDDP IC50 with respect to wt RT", "setting": "[7]", "result": 1.5},
      {"measurement": "IC50", "setting": "[8]", "result": "15.2 ± 0.9", "unit": "µM"},
      {"measurement": "IC50", "setting": "[9]", "result": "20.1 ± 7.4", "unit": "µM"},
      {"measurement": "IC50", "setting": "[10]", "result": "17.1 ± 2.1", "unit": "µM"},
      {"measurement": "Fold of increase of RDDP IC50 with respect to wt RT", "setting": "[10]; A502F RT", "result": 1.8},
      {"measurement": "IC50", "setting": "[11]", "result": "19.3 ± 2.8", "unit": "µM"},
      {"measurement": "Fold of increase of RDDP IC50 with respect to wt RT", "setting": "[11]; A508V RT", "result": 2.0}
    ]}
  ]
}
